Assay results reported in US20090246134A1, “COMPOSITIONS AND METHODS FOR MODULATING GATED ION CHANNELS” (PainCeptor Pharma Corporation, priority 2007, published 2009).
Values joined by “and” are separate entries in the source; they are usually repeats but may differ in a detail not shown here. Equal values may be shown once.

Assays:
[1] = Liver microsomes stability and metabolite identification (LC-MS), rat; type: in vitro ADME
Description: (§1) The objective of this study is to analyze in vitro samples of Compound A and Compound B from rat and human microsomes using liquid chromatography quadrupole ion trap mass spectrometry and identify the nature of the metabolite(s) for each species.
(§2) The HPLC system consisted of a Thermo Surveror autosampler and a Thermo Surveyor MS pump (San Jose, Calif., USA). The LC-MS/MS system used was a Thermo LCQ Advantage (San Jose, Calif., USA). Data was acquired on a Dell Optiplex desktop computer (Round Rock, Tex., USA) equipped with operation system Windows XP professional. Data acquisition and analysis were performed using XCalibur 1.4 (San Jose, Calif., USA).
(§3) After the incubation period of the liver microsomes, the reaction was stopped with the addition of acetonitrile and frozen for transport. Before analysis, the samples were thawed at room temperature. They were vortexed vigorously and centrifuged at approximately 12000 g for 10 minutes. The supernatant was transferred into an injection vial for analysis.
(§4) A gradient mobile phase was used with a Thermo Phenyl 100×2 mm column with particle size of 5 μm. The initial mobile phase condition consisted of methanol and 0.1% formic acid solution at a ratio of 20:80, respectively. From 0 to 2 minutes, the ratio was maintained at 20:80. From 2 to 10 minutes, a linear gradient was applied and a ratio of 90:10 was maintained from 10 to 12 minutes. […] The flow rate was fixed at 0.25 mL/min.
(§5) The mass spectrometer was interfaced with the HPLC system using a pneumatic assisted electrospray ion source. The sheath gas was set to 15 units and the ESI electrode was set to 4000 V (positive mode). The capillary temperature was set at 300° C., and the capillary voltage was set to 13 V. The mass spectrometer was operating in full scan MS mode using one segment analysis (200-800).

[2] = Liver microsomes stability and metabolite identification (LC-MS), human; type: in vitro ADME
Description: as §1, §2, §3, §4, §5

ASIC1a = target: T1, ASIC1a (Homo sapiens, UniProt P78348); test: Calcium-imaging (calcium mobilization, FLIPR) assay in ASIC1a expressing HEK293 cells; type: cell-based; design: host or cells: HEK293; details: n=3-7, compounds not radiolabelled
T1 sequence (P78348 1-528): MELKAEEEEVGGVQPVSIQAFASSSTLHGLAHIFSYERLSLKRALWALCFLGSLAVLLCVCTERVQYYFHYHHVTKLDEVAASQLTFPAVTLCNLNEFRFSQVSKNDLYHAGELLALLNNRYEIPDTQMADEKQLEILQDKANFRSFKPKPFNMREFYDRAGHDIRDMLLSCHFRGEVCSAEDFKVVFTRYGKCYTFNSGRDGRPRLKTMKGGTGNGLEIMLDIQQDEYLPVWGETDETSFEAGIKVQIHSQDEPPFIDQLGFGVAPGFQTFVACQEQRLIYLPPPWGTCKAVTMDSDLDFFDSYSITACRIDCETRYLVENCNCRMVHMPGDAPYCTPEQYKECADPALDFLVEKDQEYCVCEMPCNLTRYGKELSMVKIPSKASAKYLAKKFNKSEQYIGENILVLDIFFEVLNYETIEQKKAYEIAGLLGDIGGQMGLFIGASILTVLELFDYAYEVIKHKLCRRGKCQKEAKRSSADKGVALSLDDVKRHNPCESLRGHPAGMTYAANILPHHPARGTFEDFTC
Experimental: ASIC1a expressing HEK293 cells are grown in culture medium (DMEM with 10% FBS), in polystyrene culture flasks ([…]) at 37° C. in a humidified atmosphere of 5% CO2. Confluency of cells should be 80-90% on day of plating. Cells are rinsed with 10 ml of PBS and re-suspended by addition of culture medium and trituration with a 25 ml pipette.
The cells are seeded at a density of approximately 1×10^6 cells/ml (100 μl/well) in black-walled, clear bottom, 96-well plates pre-treated with 10 mg/l poly-D-lysin (75 μl/well for ≧30 min). Plated cells were allowed to proliferate for 24 h before loading with dye.
Fluo-4/AM (1 mg, Molecular Probes) is dissolved in 912 μl DMSO. The Fluo-4/AM stock solution (1 mM) is diluted with culture medium to a final concentration of 2 μM (loading solution).
The culture medium is aspirated from the wells, and 50 μl of the Fluo-4/AM loading solution is added to each well. The cells are incubated at 37° C. for 30 min.
After the loading period, the loading solution is aspirated and the cells are washed twice with 100 μl modified Assay Buffer (145 mM NaCl, 5 mM KCl, 5 mM CaCl2, 1 mM MgCl2, 10 mM HEPES, pH 7.4) to remove extracellular dye. Following the second wash, 100 μl modified Assay Buffer is added to each well and the fluorescence is measured in FLIPR™ or FlexStation™ (Molecular Devices, USA), or any other suitable equipment known to the skilled in the art.
Temperature: Room temperature (20-22° C.)
First addition: 50 μl test solution at a rate of 30 μl/sec and a starting height of […]
Second addition: 50 μl MES solution (20 mM, 5 mM final concentration) at a rate of 35 μl/sec and a starting height of 150 μl.
Reading intervals: pre-incubation—10 sec×7 and 3 sec×3 antagonist phase—3 sec×17 and 10 sec×12
Addition plates (compound test plate and MES plate) are placed on the right and left positions in the FLIPR tray, respectively. Cell plates are placed in the middle position and the ASIC1a program is effectuated. FLIPR will then take the appropriate measurements in accordance with the interval settings above. Fluorescence obtained after stimulation is corrected for the mean basal fluorescence (in modified Assay Buffer).
The MES-induced peak calcium response, in the presence of test substance, is expressed relatively to the MES response alone. Test substances that block the MES-induced calcium response are re-tested in triplicates. Confirmed hits are picked for further characterization by performing full dose-response curves to determine potency of each hit compound as represented by the IC50 values (i.e., the concentration of the test substance which inhibits 50% of the MES-induced calcium response).
It is noted that the compounds below are not radiolabelled.

[3] = rat microsomes 60 min (samples 5-7)
[4] = human microsomes 60 min (samples 14-16)

- Total % metabolites ([1]; % peak area relative to parent at T0, 60 min incubation, rat microsomes): 32.76%
- Compound A metabolite identification: m/z 342 [1, 3]: Yes
- Compound A metabolite identification: m/z 356 (parent) [1, 3]: Yes
- Compound A metabolite identification: m/z 372 [1, 3]: Yes
- Compound A metabolite identification: m/z 412 [1, 3]: trace
- Calc. Conc. ([1]; rat microsomes, time 0 min): 3.61 µM and 3.80 µM
- Calc. Conc. ([1]; rat microsomes, time 60 min): 2.49 µM and 2.67 µM and 2.40 µM
- Total % metabolites ([2]; % peak area relative to parent at T0, 60 min incubation, human microsomes): 8.08%
- Compound A metabolite identification: m/z 342 [2, 4]: Yes
- Compound A metabolite identification: m/z 356 (parent) [2, 4]: Yes
- Compound A metabolite identification: m/z 372 [2, 4]: Yes
- Compound A metabolite identification: m/z 412 [2, 4]: no
- Calc. Conc. ([2]; human microsomes, time 0 min): 4.91 µM and 6.54 µM
- Calc. Conc. ([2]; human microsomes, time 60 min): 3.84 µM and 3.83 µM and 3.77 µM
- IC50 (ASIC1a): 700 nM
Compound: COc1ccc(F)cc1-c1cc2c(c3c1CCN(C)C3)NC(=O)C2=NO [Compound A, 5-(5-fluoro-2-methoxyphenyl)-6,7,8,9-tetrahydro-3-(hydroxyimino)-8-methyl-1H-pyrrolo[3,2-h]isoquinoline-2(3H)-one]
